Strand notation (5' to 3'): a small letter for the sugar, then the base; units joined by * are phosphorothioate-linked, units joined directly phosphodiester-linked; [ ] holds rarer units or linkages, { } end groups; capitals alone tell only the bases. e = 2'-O-(2-methoxyethyl) (MOE); l = locked nucleic acid (LNA); [5mC] = 5-methylcytosine; d = 2'-deoxy (DNA)
Test system: human ABCB11 mRNA
Assay: ASO treatment of primary human hepatocytes (PHH), ABCB11 mRNA by RT-qPCR normalized to B2M
Type: cell-based
Conditions: primary human hepatocytes; for ABCB11 FC mRNA (5 μM ASO vs. untreated): 5 μM ASO with PO-modifications, normalized to untreated hepatocytes; for ABCB11 mRNA FC (5 μM ASO vs. UNT): normalized to untreated PHHs (UNT)
Outline: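 ABCB11 mRNA was quantified by Taqman RT-qPCR relative to B2M and expressed as fold over untreated cells. Cells were cryopreserved primary human hepatocytes given ASO in Matrigel-supplemented medium 4 h after plating, at 1.25, 2.5, 5 or 10 μM (5 μM for screening), and harvested after 72 hrs.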

Substance	ABCB11 FC mRNA (5 μM ASO vs. untreated) [fold change]	ABCB11 mRNA FC (5 μM ASO vs. UNT) [fold change]
CO-11201 (antisense eT*eGeTeTeTeTeG*e[5mC]*eT*eT*eG*eG*eT*e[5mC]eAeAeGeAeG*eG)	0.99	
CO-4037 (antisense eG*eG*eG*eA*e[5mC]*eA*eT*eT*eG*eA*eT*e[5mC]*e[5mC]*eT*eT*eA*eG*eG*e[5mC]*eA)		0.697
CO-12750 (antisense eG*eT*eG*eAeG*eG*e[5mC]*eAeT*e[5mC]*eA*eGeG*eT*eA*eAeG*eT*eT*e[5mC])	1.39	
CO-12755 (antisense eG*eT*eGeA*eGeG*e[5mC]eA*eTe[5mC]*eAeG*eGeT*eAeA*eGeT*eT*e[5mC])	0.99	
CO-7064 (eT*e[5mC]*eT*eG*lG*eA*eA*eA*lA*eT*eA*eA*lT*eG*e[5mC]*e[5mC]*lT*eT*eT*e[5mC]; antisense)		1.017
CO-4496 (antisense eG*eT*eA*e[5mC]*eT*eA*eG*eA*e[5mC]*eT*e[5mC]*eT*eG*e[5mC]*e[5mC]*eT*eG*eT*eG*eT)		0.984
CO-7164 (antisense eA*eT*eT*e[5mC]*eT*eA*e[5mC]*eA*eG*eA*eG*eG*eG*eA*eG*e[5mC]*eA*eT*eA*eA)		1.178
CO-4516 (antisense eA*eT*eG*eA*e[5mC]*eA*eT*eG*eA*eT*eA*eG*e[5mC]*eA*e[5mC]*e[5mC]*e[5mC]*eA*eA*e[5mC])		1.033
CO-7187: derivative ASO with additional chemical modifications based on parent ASO CO-4535 (antisense eT*eG*eG*e[5mC]*lG*dT*dT*dA*lT*dT*dA*dA*lT*dT*d[5mC]*eT*lA*e[5mC]*eA*eG)		1.544
CO-11224 (antisense eG*eT*lGeGeAlGe[5mC]*eA*lA*eA*e[5mC]*lT*eA*eGlGe[5mC]eAl[5mC]*eT*eG)	1.88	
CO-7110 (eT*eA*e[5mC]*eA*eT*eT*eT*dA*dG*dA*dG*dA*d[5mC]*dA*dA*dA*dG*eA*eA*eT*e[5mC]*eG*e[5mC]*eT; antisense)		1.035
CO-11212 (antisense eG*eT*lGeGlAeGl[5mC]*eA*lA*eA*l[5mC]*eT*lA*eGlGe[5mC]lAe[5mC]*eT*eG)	2.44	
CO-7004 (antisense eG*eT*eG*eA*lG*eG*e[5mC]*eA*eT*l[5mC]*eA*eG*eG*eT*lA*eA*eG*eT*eT*e[5mC])		1.285
CO-7155 (antisense eA*e[5mC]*e[5mC]*eT*eT*dA*dG*lG*dA*dG*lG*dA*dT*lT*dA*dT*lT*dT*dA*eA*e[5mC]*e[5mC]*eT*e[5mC])		1.253
CO-7205 (eT*eT*eG*eG*e[5mC]*dG*dT*dT*eA*dT*dT*dA*dA*eT*dT*d[5mC]*dT*eA*e[5mC]*eA*eG*eA; antisense)		1.278
CO-7059 (eT*e[5mC]*eT*lG*eG*dA*dA*lA*dA*dT*dA*lA*dT*dG*d[5mC]*l[5mC]*eT*eT*eT*e[5mC]; antisense)		1.023
CO-11208 (antisense eT*eG*eTeT*eTeT*eGe[5mC]*eTeT*eGeG*eTe[5mC]*eAeA*eGeA*eG*eG)	1.04	
CO-7063 (eT*e[5mC]*lT*eG*eG*lA*eA*eA*lA*eT*eA*lA*eT*eG*l[5mC]*e[5mC]*eT*lT*eT*e[5mC]; antisense)		1.291
CO-7169 (antisense eT*eT*eA*eT*eT*eT*eG*eG*e[5mC]*eG*eT*eT*eA*eT*eT*eA*eA*eT*eT*e[5mC])		1.289
CO-4500 (antisense eA*eG*eA*e[5mC]*eT*eT*eT*eG*eG*e[5mC]*e[5mC]*eA*eG*eG*e[5mC]*eA*eA*eG*eA*e[5mC])		1.109
CO-6674 (antisense eT*eG*eG*eA*eA*eG*eG*eA*e[5mC]*eA*e[5mC]*eA*eA*eT*eT*eT*e[5mC]*eT*eG*eT)		1.175
CO-7044 (antisense eT*eT*eT*eT*eG*e[5mC]*eT*eT*eG*eG*eT*e[5mC]*eA*eA*eG*eA*eG*eG*eA*eA)		0.943
CO-4059 (antisense eG*eT*eA*eA*eG*e[5mC]*eT*e[5mC]*eA*eG*eG*e[5mC]*eAeA*eA*eG*eG*eA*eG*eA)		1.186
CO-7195 (eG*eG*eT*eG*eG*eA*dG*d[5mC]*dA*dA*dA*d[5mC]*dT*dA*dG*dG*e[5mC]*eA*e[5mC]*eT*eG*eA; antisense)		1.443
CO-7069 (e[5mC]*eA*eT*lT*eT*dA*dG*lA*dG*dA*d[5mC]*lA*dA*dA*dG*lA*eA*eT*e[5mC]*eG; antisense)		1.011
CO-7045 (antisense eT*eG*eT*eT*eT*dT*dG*d[5mC]*dT*dT*dG*dG*dT*d[5mC]*dA*eA*eG*eA*eG*eG)		1.112

Substance	ABCB11 FC mRNA (5 μM ASO vs. untreated) [fold change]	ABCB11 mRNA FC (5 μM ASO vs. UNT) [fold change]
CO-7032 (antisense eA*e[5mC]*eA*eA*eA*eG*eA*eA*eT*e[5mC]*eG*e[5mC]*eT*eG*eT*eG*eG*e[5mC]*eA*eG)		1.093
CO-12747 (antisense eG*eT*eGeAeGeGe[5mC]*eA*eT*e[5mC]*eA*eG*eG*eTeAeAeGeT*eT*e[5mC])	0.97	
CO-11243 (antisense eG*eT*eGeG*lA*eGe[5mC]*eA*eAlA*e[5mC]*eTeA*eG*lGe[5mC]*eA*e[5mC]eT*eG)	1.71	
CO-4036 (antisense eG*e[5mC]*eA*eA*eA*eT*eA*eG*eA*eT*eA*eA*eT*eG*eT*eT*e[5mC]*eT*eT*eG)		1.235
CO-7038 (antisense eA*eA*e[5mC]*eT*eG*eT*eA*e[5mC]*eA*eT*eT*eT*eA*eG*eA*eG*eA*e[5mC]*eA*eA)		1.189
CO-7185 (antisense eT*eG*eG*e[5mC]*eG*lT*dT*dA*lT*dT*dA*lA*dT*dT*l[5mC]*eT*eA*e[5mC]*eA*eG)		1.327
CO-4525 (antisense eA*e[5mC]*e[5mC]*e[5mC]*eA*e[5mC]*eA*eT*eA*eG*eT*eT*eG*eT*eA*e[5mC]*eT*e[5mC]*eT*e[5mC])		0.995
CO-4498 (antisense eG*eT*e[5mC]*e[5mC]*e[5mC]*eT*eG*eT*eG*eG*eT*eT*eA*e[5mC]*e[5mC]*eT*eA*eA*eA*eG)		0.934
CO-7022 (antisense eT*e[5mC]*eT*eG*eG*dA*dA*dA*dA*dT*dA*dA*dT*dG*d[5mC]*e[5mC]*eT*eT*eT*e[5mC])		1.224
CO-7114 (eG*eT*eG*eT*eT*eT*dT*dG*d[5mC]*dT*dT*dG*dG*dT*d[5mC]*dA*eA*eG*eA*eG*eG*eA; antisense)		1.47
CO-4487 (antisense eG*e[5mC]*eA*eA*eG*eG*eT*e[5mC]*e[5mC]*eA*eG*eG*eG*eT*eG*eT*eA*eT*eT*e[5mC])		1.052
CO-7007 (antisense eG*eT*eG*eG*eA*dT*dG*dT*eA*dG*dA*dT*dG*eA*dA*dT*dG*eG*e[5mC]*eA*eA*eG)		0.963
CO-4027 (antisense eG*eT*eG*eG*eA*eG*eT*eGeT*eT*eT*e[5mC]*eT*eG*eG*eT*eT*eT*eA*eT)		1.095
CO-4053 (antisense eG*eA*eG*e[5mC]*eT*eT*e[5mC]*eA*eT*e[5mC]*eT*eG*eG*eT*eG*eT*eG*eT*e[5mC]*e[5mC])		1.218
CO-3988 (antisense eA*eA*eA*eT*eG*e[5mC]*e[5mC]*e[5mC]*eA*eA*eG*eT*eT*eT*e[5mC]*eA*eT*eT*eG*e[5mC])		1.827
CO-7095 (eA*e[5mC]*e[5mC]*l[5mC]*e[5mC]*e[5mC]*e[5mC]*lT*e[5mC]*eA*e[5mC]*l[5mC]*eT*eT*eG*lG*eT*eT*e[5mC]*e[5mC]; antisense)		0.925
CO-7005 (antisense eG*eT*eG*eG*eA*eT*dG*dT*dA*dG*dA*dT*dG*dA*dA*dT*eG*eG*e[5mC]*eA*eA*eG)		1.257
CO-4492 (antisense eG*eA*eT*eT*eT*eA*eA*eA*eG*eG*eA*e[5mC]*eT*eG*e[5mC]*eA*eT*eG*eG*e[5mC])		1.192
CO-4495 (antisense eT*eG*eG*eT*eA*eT*e[5mC]*e[5mC]*eA*eT*eT*e[5mC]*eA*e[5mC]*eA*eA*eG*eG*eT*eG)		1.07
CO-6999 (antisense eG*eT*lG*eA*lG*eG*l[5mC]*eA*lT*e[5mC]*lA*eG*lGeT*lA*eA*lG*eT*eT*e[5mC])		1.24
CO-7065 (eT*e[5mC]*eT*lG*eG*eA*eA*lA*eA*eT*eA*lA*eT*eG*e[5mC]*l[5mC]*eT*eT*eT*e[5mC]; antisense)		1.262
CO-11214 (antisense eG*eT*lGeG*lA*eG*l[5mC]*eAlA*eA*l[5mC]*eT*lAeG*lG*e[5mC]*lA*e[5mC]eT*eG)	2.90	
CO-4042 (antisense e[5mC]*eT*e[5mC]*eT*e[5mC]*eG*eT*eT*e[5mC]*e[5mC]*eA*eA*eG*eG*eT*eG*eA*eA*eT*e[5mC])		0.605
CO-3997 (antisense eG*e[5mC]*eT*eG*eT*eG*e[5mC]*eT*e[5mC]*eT*eG*eT*eA*eA*e[5mC]*eA*e[5mC]*eT*eG*eT)		1.501
CO-4047 (antisense eG*e[5mC]*eA*eA*eT*e[5mC]*eT*eT*eT*eT*eA*eT*eA*eT*eT*eG*eA*eG*eG*eG)		0.676

From patent US20250320496A1, “MODULATION OF ABCB11 GENE TRANSCRIPTION USING ANTISENSE OLIGONUCLEOTIDES TARGETING REGULATORY RNAS” (CAMP4 Therapeutics Corporation, priority 2022, published 2025)
